Measurements published in US20230331803A1, “CO-AGONISTS OF THE GLP-1 AND AMYLIN RECEPTORS” (priority 2020, published 2023).
Where two headings read alike, the source gives them in different places. Starred links: 1 amine or outer side, 2 acyl side, 3 side chain; linkers in the order of their positions; H or OH if unused. Positions of bridges follow the written chain, without caps; N, C: chain ends. Non-standard residues stand in square brackets, D forms with d. Groups on a side chain read outwards from the residue. *: point of attachment. Undecanoyl(11-OPh(4-COOH)) = O=C(O)c1ccc(OCCCCCCCCCCC(=O)*)cc1; Decanoyl(10-(4-HOOC-PhO)) = O=C(O)c1ccc(OCCCCCCCCCC(=O)*)cc1; C20 diacid = O=C(O)CCCCCCCCCCCCCCCCCCC(=O)*; C18 diacid = O=C(O)CCCCCCCCCCCCCCCCC(=O)*; C16 diacid = O=C(O)CCCCCCCCCCCCCCC(=O)*; γGlu = O=C(O)[C@H](CCC(=O)[*:2])N[*:1]; εLys = N[C@@H](CCCCN[*:1])C(=O)[*:2]; Trx = NC[C@H]1CC[C@H](C(=O)O)CC1; AEEA = NCCOCCOCC(=O)O; Aib = CC(C)(N)C(=O)O

Tests used:
[1] = target: T1, human amylin receptor (hAmyR3) (Homo sapiens, UniProt O60896+P30988); assay: Human amylin receptor in vitro potency assay (CRE-luciferase reporter, BHK cells); format: cell-based;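 note: BHK cells expressing human calcitonin receptor plus RAMP3 (amylin-3 receptor) with a CRE-luciferase reporter, agonist activity read as luminescence from cAMP-driven transcription, 7-point serial dilutions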
T1 construct: host or cells: BHK cells (Hollex-1 line: human calcitonin receptor (a) + CRE-Luc), further transfected with human RAMP3
T1 sequence (P30988 25-474): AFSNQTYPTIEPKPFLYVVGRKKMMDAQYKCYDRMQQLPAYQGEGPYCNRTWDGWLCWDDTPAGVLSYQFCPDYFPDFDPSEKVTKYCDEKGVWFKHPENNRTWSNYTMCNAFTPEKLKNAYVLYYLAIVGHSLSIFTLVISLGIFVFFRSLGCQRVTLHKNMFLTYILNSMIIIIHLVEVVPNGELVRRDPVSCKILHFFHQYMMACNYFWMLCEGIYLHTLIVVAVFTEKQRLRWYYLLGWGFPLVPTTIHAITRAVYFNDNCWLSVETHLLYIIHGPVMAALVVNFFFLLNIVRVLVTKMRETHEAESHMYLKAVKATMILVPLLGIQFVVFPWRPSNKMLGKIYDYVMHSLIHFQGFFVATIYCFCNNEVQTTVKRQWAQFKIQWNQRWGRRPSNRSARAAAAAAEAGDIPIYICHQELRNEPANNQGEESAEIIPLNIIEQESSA
T1 sequence (O60896 24-148): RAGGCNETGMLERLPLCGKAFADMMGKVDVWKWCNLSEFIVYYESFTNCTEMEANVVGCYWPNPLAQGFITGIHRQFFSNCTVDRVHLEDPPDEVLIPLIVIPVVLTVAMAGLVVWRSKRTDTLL

human GLP-1 receptor = target: T2, human GLP-1 receptor (Homo sapiens, UniProt P43220); assay: Human GLP-1 receptor in vitro potency assay (CRE-luciferase reporter, BHK cells); format: cell-based
T2 construct: expressed in transfected cells; host or cells: BHK (Baby Hamster Kidney) cells, clone BHK 467-12A KZ-10, stably transfected, with CRE-luciferase reporter
T2 sequence (P43220 24-463): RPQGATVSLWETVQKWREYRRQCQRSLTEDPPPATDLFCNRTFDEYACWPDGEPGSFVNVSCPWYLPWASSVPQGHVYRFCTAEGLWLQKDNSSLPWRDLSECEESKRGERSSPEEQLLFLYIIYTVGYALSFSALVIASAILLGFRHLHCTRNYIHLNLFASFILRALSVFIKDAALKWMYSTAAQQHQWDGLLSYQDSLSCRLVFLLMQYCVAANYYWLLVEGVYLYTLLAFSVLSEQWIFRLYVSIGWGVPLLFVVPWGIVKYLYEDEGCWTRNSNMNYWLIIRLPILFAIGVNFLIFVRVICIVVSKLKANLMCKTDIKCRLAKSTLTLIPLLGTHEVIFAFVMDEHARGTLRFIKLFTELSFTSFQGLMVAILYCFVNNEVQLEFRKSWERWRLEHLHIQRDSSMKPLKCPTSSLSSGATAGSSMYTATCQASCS
Protocol: It is thus possible to measure GLP-1 receptor activity using a CRE-luciferase reporter gene introduced into Baby Hamster Kidney (BHK) cells co-expressing the GLP-1 receptor.
Cells were aliquoted and stored at -180° C. until use.
Plates were sealed and incubated at room temperature with gentle shaking for 30 minutes while protected from light. Luminescence was detected on a luminescence plate reader e.g. a Synergy 2 (BioTek).

[2] = Table 4a, BHK hAmyR3/CRE-Luc cells, 3 hours, read-out: Human AmyR3 potency [EC50 (pM)]
[3] = Table 4a, BHK cells expressing human GLP-1R, CRE-Luc, 3 hours, read-out: Human GLP-1R potency [EC50 (pM)]

Row | Compound | EC50 [1, 2] | EC50 (human GLP-1 receptor; [3]) | EC50 [1] | EC50 (human GLP-1 receptor) | Ability to agonise the amylin receptor, in words ([1]; Tables 4a-4c)
1 | H-HWEGTFTSDVSSYLEEQAARK([AEEA-AEEA-γGlu-Undecanoyl(11-OPh(4-COOH))])FIEWLVRGRGEGGGGGASELSTAALGRLSK([AEEA-AEEA-γGlu-Undecanoyl(11-OPh(4-COOH))])ELHELATLPRTETGSGSP-NH2 [Compound 0255] | – | – | 28.6 pM | 2.5 pM | –
2 | HWEGTFTSDVSSYLEEQAARK([AEEA-AEEA-γGlu-Decanoyl(10-(4-HOOC-PhO))])FIEWLVRGK([AEEA-AEEA-γGlu-Decanoyl(10-(4-HOOC-PhO))])GEGEASELSTAALGRLSAELHELATLPRTETGSGSP-NH2 [Compound 0099] | – | – | 44.9 pM | 9.6 pM | –
3 | H-HAEGTFTSDK([AEEA-AEEA-γGlu-C16 diacid])SSYLEEK([AEEA-AEEA-γGlu-C16 diacid])AAREFIEWLVRGRGEASELSTAALGRLSAELHELATLPRTETGSGSP-NH2 [Compound 0475] | 66.8 pM | 70.4 pM | – | – | –
4 | H-H[Aib]EGTFTSDVSSYLEEQAAREFIAWLVRGK([AEEA-AEEA-γGlu-C16 diacid])GGGGGEASELSTAALGRLSAELHK([AEEA-AEEA-γGlu-C16 diacid])LATLPRTETGSGSP-NH2 [Compound 0280] | 18 pM | 34.3 pM | – | – | –
5 | H-H[Aib]EGTFTSDVSSYLEEQAAREFIAWLVRGRK([AEEA-AEEA-γGlu-C18 diacid])GGGGSGGGEASELSTAALGRLSAELHELATLPRTETGSGSP-NH2 [Compound 0637] | 14.1 pM | 1.9 pM | – | – | –
6 | H-H[Aib]EGTFTSDVSSYLEEQAAREFIAWLVRGRK([AEEA-AEEA-γGlu-C20 diacid])GGGGSGGGEASELSTAALGRLSAELHELATLPRTETGSGSP-NH2 [Compound 0638] | 6.9 pM | 4.6 pM | – | – | –
7 | H-H[Aib]EGTFTSDK([AEEA-AEEA-γGlu-C16 diacid])SSYLEEQAAREFIAWLVRGRGGGGGEASELSTAALGRLSAELHELATLK([AEEA-AEEA-γGlu-C16 diacid])RTETGSGSP-NH2 [Compound 0261] | 23.9 pM | 17.4 pM | – | – | –
8 | H-HAEGTFTSDVSSYLEEK([AEEA-AEEA-γGlu-C20 diacid])AAREFIEWLVRGRGEASELSTAALGRLSAELHELATLPRTETGSGSP-NH2 [Compound 0474] | 21.8 pM | 2.9 pM | – | – | –
9 | H-HAEGTFTSDVSSYLEEK([AEEA-AEEA-γGlu-Trx-C20 diacid])AAREFIEWLVRGRGEASELSTAALGRLSAELHELATLPRTETGSGSP-NH2 [Compound 0414] | 17.7 pM | 11.2 pM | – | – | –
10 | H-H[Aib]EGTFTSDVSSYLEGQAAK([AEEA-AEEA-γGlu-C18 diacid])EFIAWLVRGRGGQEPGQEPK([γGlu-γGlu-C20 diacid])CNTATCATQRLADFLRHSSPNFGAIPSSTNVGSRTY-NH2 (disulfide 41-46) [Comparator compound 0668, reference compound] | – | – | – | – | do not activate the amylin receptor

The next lines start with results.

Row | EC50 [1, 2] | EC50 (human GLP-1 receptor; [3]) | Compound | EC50 [1] | EC50 (human GLP-1 receptor) | Ability to agonise the amylin receptor, in words ([1]; Tables 4a-4c)
11 | 8.5 pM | 6.3 pM | CC[C@H](C)[C@H](NC(=O)[C@H](Cc1ccccc1)NC(=O)[C@H](CCC(=O)O)NC(=O)[C@H](CCCNC(=N)N)NC(=O)[C@H](C)NC(=O)[C@H](C)NC(=O)[C@H](CCC(N)=O)NC(=O)[C@H](CCC(=O)O)NC(=O)[C@H](CCC(=O)O)NC(=O)[C@H](CC(C)C)NC(=O)[C@H](Cc1ccc(O)cc1)NC(=O)[C@H](CO)NC(=O)[C@H](CO)NC(=O)[C@H](CCCCNC(=O)COCCOCCNC(=O)COCCOCCNC(=O)CC[C@H](NC(=O)[C@H]1CC[C@H](CNC(=O)CCCCCCCCCCCCCCCCCCC(=O)O)CC1)C(=O)O)NC(=O)[C@H](CC(=O)O)NC(=O)[C@H](CO)NC(=O)[C@@H](NC(=O)[C@H](Cc1ccccc1)NC(=O)[C@@H](NC(=O)CNC(=O)[C@H](CCC(=O)O)NC(=O)C(C)(C)NC(=O)[C@@H](N)Cc1c[nH]cn1)[C@@H](C)O)[C@@H](C)O)C(=O)N[C@@H](C)C(=O)N[C@@H](Cc1c[nH]c2ccccc12)C(=O)N[C@@H](CC(C)C)C(=O)N[C@H](C(=O)N[C@@H](CCCNC(=N)N)C(=O)NCC(=O)N[C@@H](CCCNC(=N)N)C(=O)NCC(=O)NCC(=O)NCC(=O)NCC(=O)N[C@@H](CCC(=O)O)C(=O)N[C@@H](C)C(=O)N[C@@H](CO)C(=O)N[C@@H](CCC(=O)O)C(=O)N[C@@H](CC(C)C)C(=O)N[C@@H](CO)C(=O)N[C@H](C(=O)N[C@@H](C)C(=O)N[C@@H](C)C(=O)N[C@@H](CC(C)C)C(=O)NCC(=O)N[C@@H](CCCNC(=N)N)C(=O)N[C@@H](CC(C)C)C(=O)N[C@@H](CO)C(=O)N[C@@H](C)C(=O)N[C@@H](CCC(=O)O)C(=O)N[C@@H](CC(C)C)C(=O)N[C@@H](Cc1c[nH]cn1)C(=O)N[C@@H](CCC(=O)O)C(=O)N[C@@H](CC(C)C)C(=O)N[C@@H](C)C(=O)N[C@H](C(=O)N[C@@H](CC(C)C)C(=O)N1CCC[C@H]1C(=O)N[C@@H](CCCNC(=N)N)C(=O)N[C@H](C(=O)N[C@@H](CCC(=O)O)C(=O)N[C@H](C(=O)NCC(=O)N[C@@H](CO)C(=O)NCC(=O)N[C@@H](CO)C(=O)N1CCC[C@H]1C(N)=O)[C@@H](C)O)[C@@H](C)O)[C@@H](C)O)[C@@H](C)O)C(C)C [Compound 0266] | – | – | –
12 | 23.5 pM | 1.2 pM | H-H[Aib]EGTFTSDVSSYLEEQAARK([AEEA-AEEA-γGlu-C18 diacid])FIEWLVRGRK([AEEA-AEEA-γGlu-C18 diacid])GGEASELSTAALGRLSAELHELATLPRTETGSGSP-NH2 [Compound 0129] | – | – | –
13 | 46.2 pM | 5.4 pM | H-H[Aib]EGTFTSDVSSYLEGQAAREFIAWLVRGRK([AEEA-AEEA-γGlu-C18 diacid])GQEPGQAPEASELSTAALGRLSAELHELATLPRTETGSGSP-NH2 [Compound 0083] | – | – | –
14 | 28.4 pM | 10.5 pM | H-H[Aib]EGTFTSDVSSYLEGQAAK([AEEA-AEEA-γGlu-C20 diacid])EFIAWLVRGRGQEPGQAPEASELSTAALGRLSAELHELATLPRTETGSGSP-NH2 [Compound 0202] | – | – | –
15 | 46.4 pM | 1.7 pM | H[Aib]EGTFTSDVSSYLEEQAARK([AEEA-AEEA-γGlu-C16 diacid])FIAWLVRGK([AEEA-AEEA-γGlu-C16 diacid])GGGEASELSTAALGRLSAELHELATLPRTETGSGSP-NH2 [Compound 0076] | – | – | –
16 | 13.2 pM | 43.3 pM | H-H[Aib]EGTFTSDVSSYLEEQAAREFIAWLVRGRK([γGlu-C20 diacid])EASELSTAALGRLSAELHELATLPRTETGSGSP-NH2 [Compound 0141] | – | – | –
17 | 37 pM | 5.4 pM | H-H[Aib]EGTFTSDVSSYLEGQAAREFIAWLVRGRGEGEGEK([AEEA-AEEA-γGlu-C18 diacid])EASELSTAALGRLSAELHELATLPRTETGSGSP-NH2 [Compound 0010] | – | – | –
18 | 11.8 pM | 12 pM | H-HWEGTFTSDVSSYLEEQAARK([εLys-AEEA-AEEA-γGlu-Trx-C20 diacid])FIEWLVRGRGEASELSTAALGRLSAELHELATLPRTETGSGSP-NH2 [Compound 0437] | – | – | –
19 | 22.6 pM | 22.6 pM | H-H[Aib]EGTFTSDVSSYLEGQAAK([AEEA-AEEA-γGlu-C18 diacid])EFIAWLVRGRGQAPGQEPEASELSTAALGRLSAELHELATLPRTETGSGSP-NH2 [Compound 0156] | – | – | –
20 | 8.5 pM | – | H-H[Aib]EGTFTSDVSSYLEEQAARK([AEEA-AEEA-γGlu-γGlu-γGlu-C20 diacid])FIEWLVRGRQEAASELSTAALGRLSAELHQLATLPRTETGSGSP-NH2 [Compound 0636] | – | – | –
21 | 60.9 pM | – | H[Aib]EGTFTSDVSSYLEEQAARK([AEEA-AEEA-γGlu-C16 diacid])FIAWLVRGRGGK([AEEA-AEEA-γGlu-C16 diacid])EASELSTAALGRLSAELHELATLPRTETGSGSP-NH2 [Compound 0074] | – | – | –
22 | 28.4 pM | – | CC[C@H](C)[C@H](NC(=O)[C@H](Cc1ccccc1)NC(=O)[C@H](CCCCNC(=O)COCCOCCNC(=O)COCCOCCNC(=O)CC[C@H](NC(=O)CCCCCCCCCCCCCCCCC(=O)O)C(=O)O)NC(=O)[C@H](CCCNC(=N)N)NC(=O)[C@H](C)NC(=O)[C@H](C)NC(=O)[C@H](CCC(N)=O)NC(=O)[C@H](CCC(=O)O)NC(=O)[C@H](CCC(=O)O)NC(=O)[C@H](CC(C)C)NC(=O)[C@H](Cc1ccc(O)cc1)NC(=O)[C@H](CO)NC(=O)[C@H](CO)NC(=O)[C@@H](NC(=O)[C@H](CC(=O)O)NC(=O)[C@H](CO)NC(=O)[C@@H](NC(=O)[C@H](Cc1ccccc1)NC(=O)[C@@H](NC(=O)CNC(=O)[C@H](CCC(=O)O)NC(=O)C(C)(C)NC(=O)[C@@H](N)Cc1c[nH]cn1)[C@@H](C)O)[C@@H](C)O)C(C)C)C(=O)N[C@@H](CCC(=O)O)C(=O)N[C@@H](Cc1c[nH]c2ccccc12)C(=O)N[C@@H](CC(C)C)C(=O)N[C@H](C(=O)N[C@@H](CCCNC(=N)N)C(=O)NCC(=O)N[C@@H](CCCCNC(=O)COCCOCCNC(=O)COCCOCCNC(=O)CC[C@H](NC(=O)CCCCCCCCCCCCCCCCC(=O)O)C(=O)O)C(=O)NCC(=O)N[C@@H](CCC(=O)O)C(=O)NCC(=O)N[C@@H](CCC(N)=O)C(=O)N[C@@H](CCC(=O)O)C(=O)N1CCC[C@H]1C(=O)NCC(=O)NCC(=O)N[C@@H](C)C(=O)N[C@@H](CO)C(=O)N[C@@H](CCC(=O)O)C(=O)N[C@@H](CC(C)C)C(=O)N[C@@H](CO)C(=O)N[C@H](C(=O)N[C@@H](C)C(=O)N[C@@H](C)C(=O)N[C@@H](CC(C)C)C(=O)NCC(=O)N[C@@H](CCCNC(=N)N)C(=O)N[C@@H](CC(C)C)C(=O)N[C@@H](CO)C(=O)N[C@@H](C)C(=O)N[C@@H](CCC(=O)O)C(=O)N[C@@H](CC(C)C)C(=O)N[C@@H](Cc1c[nH]cn1)C(=O)N[C@@H](CCC(=O)O)C(=O)N[C@@H](CC(C)C)C(=O)N[C@@H](C)C(=O)N[C@H](C(=O)N[C@@H](CC(C)C)C(=O)N1CCC[C@H]1C(=O)N[C@@H](CCCNC(=N)N)C(=O)N[C@H](C(=O)N[C@@H](CCC(=O)O)C(=O)N[C@H](C(=O)NCC(=O)N[C@@H](CO)C(=O)NCC(=O)N[C@@H](CO)C(=O)N1CCC[C@H]1C(N)=O)[C@@H](C)O)[C@@H](C)O)[C@@H](C)O)[C@@H](C)O)C(C)C [Compound 0106] | – | – | –
